Data taken from ChEMBL document CHEMBL1122600, “Receptor binding sites of hypoglycemic sulfonylureas and related [(acylamino)alkyl]benzoic acids” (1984).

tested on: Rattus norvegicus; assay: Effect of the compound (50 mg/kg, po) on rat blood sugar level which was given an oral glucose load (1 g/kg) 1 hr after the administration of compound; format: functional

Compound | Change in rat blood sugar
COc1ccc(Cl)cc1C(=O)NCCc1ccc(C(C)O)cc1 (stereo not given) | -11%
COc1ccc(Cl)cc1C(=O)NCCc1ccccc1 | -7%
COc1ccc(Cl)cc1C(=O)NCCc1ccc(Cl)cc1 | 0%
COc1ccc(Cl)cc1C(=O)NCCc1ccc(O)cc1 | 2%
COc1ccc(Cl)cc1C(=O)NCCc1ccc(C(C)=O)cc1 | -11%
COc1ccc(Cl)cc1C(=O)NCCc1ccc(N)cc1 | 7%
COc1ccc(Cl)cc1C(=O)NCCCCCC(=O)O | 9%
COc1ccc(Cl)cc1C(=O)NCCc1ccc(OCC(=O)O)cc1 | -9%
CCc1ccc(CCNC(=O)c2cc(Cl)ccc2OC)cc1 | -4%
C=Cc1ccc(CCNC(=O)c2cc(Cl)ccc2OC)cc1 | -6%
COc1ccc(Cl)cc1C(=O)NCCc1ccc([N+](=O)[O-])cc1 | 2%
COc1ccc(Cl)cc1C(=O)NCCc1ccc(C(F)(F)F)cc1 | -3%
COc1ccc(Cl)cc1C(=O)NCCc1ccc(C)cc1 | -55%
COc1ccc(Cl)cc1C(=O)NCCc1ccc(S(=O)(=O)NC(=O)NC2CCCCC2)cc1 [GLYBURIDE] | -44%
COc1ccc(Cl)cc1C(=O)NCCc1ccc(C(=O)O)cc1 [MEGLITINIDE] | -63%
